Measured values: the supplement of paper PMC10331698
± gives the standard deviation of the averaged measurements.

Experiments:
Assay in all cases: level (log10 ratio to DMSO vehicle control); higher = higher biomarker level / cell amount than vehicle control
Methotrexate = compound: CN(Cc1cnc2nc(N)nc(N)c2n1)c1ccc(C(=O)N[C@@H](CCC(=O)O)C(=O)O)cc1 [Methotrexate]; conditions: in DMSO
Experimental: (§1)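 BioMAP Diversity Plus panel of 12 human primary cell co-culture systems (3C, 4H, LPS, SAg, BT, BF4T, BE3C, CASM3C, HDF3CGF, KF3CT, MyoF, Mphg). Compounds were added 1 h before stimulation and left for 24 h (MyoF 48 h; BT 72 h for soluble read-outs or 6 d for IgG). Biomarkers were read by ELISA, cytotoxicity by SRB, PBMC viability and proliferation by Alamar Blue. Each well value was divided by the mean of 8 DMSO control wells on the same plate and log10 transformed; duplicate blinded samples were tested at 4 concentrations.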

[1] = compound: O=P(O)(O)CCC(F)(F)C(F)(F)C(F)(F)C(F)(F)C(F)(F)C(F)(F)F [2-(Perfluorohexyl)ethylphosphonic acid]; conditions: in DMSO
Experimental: as §1

[2] = compound: OCC(F)(F)C(F)(F)C(F)(F)C(F)(F)C(F)(F)C(F)(F)C(F)(F)C(F)(F)CO [1H,1H,10H,10H-Perfluorodecane-1,10-diol]; conditions: in DMSO
Experimental: as §1

[3] = compound: Cc1ccc(S(=O)(=O)OCC(F)(F)C(F)(F)C(F)(F)C(F)(F)C(F)(F)C(F)F)cc1 [1H,1H,7H-Perfluoroheptyl 4-methylbenzenesulfonate]; conditions: in DMSO
Experimental: as §1

[4] = compound: FC(F)(F)C(F)(F)C(F)(F)C(F)(F)CCI [1H,1H,2H,2H-Perfluorohexyl iodide]; conditions: in DMSO
Experimental: as §1

[5] = compound: C=CC(=O)OCC(F)(F)C(F)(F)C(F)(F)C(F)(F)COC(=O)C=C [1H,1H,6H,6H-Perfluorohexane-1,6-diol diacrylate]; conditions: 6700 nM; in DMSO
Experimental: as §1

[6] = compound: O=C(O)C(F)(F)C(F)(F)C(F)(F)C(F)(F)C(F)(F)C(F)(F)C(F)(F)F [Ammonium perfluorooctanoate]; conditions: in DMSO
Experimental: as §1

Row | Test System | level (log10) (Methotrexate; 1500 nM) | level (log10) (Methotrexate; 4400 nM) | level (log10) (Methotrexate; 13000 nM) | level (log10) (Methotrexate; 40000 nM) | level (log10) ([1]; 6700 nM) | level (log10) ([1]; 20000 nM) | level (log10) ([1]; 60000 nM) | level (log10) ([2]; 6700 nM) | level (log10) ([2]; 20000 nM) | level (log10) ([2]; 60000 nM) | level (log10) ([3]; 6700 nM) | level (log10) ([3]; 20000 nM) | level (log10) ([3]; 60000 nM) | level (log10) ([4]; 6700 nM) | level (log10) ([4]; 20000 nM) | level (log10) ([4]; 60000 nM) | level (log10) [5] | level (log10) ([6]; 6700 nM) | level (log10) ([6]; 20000 nM) | level (log10) ([6]; 60000 nM)
1 | BT:sIL-17A | -0.0735 ± 0.14 | -0.02 ± 0.058 | -0.002 ± 0.11 | -0.197 ± 0.18 | 0.018 ± 0.11 | -0.07 ± 0.017 | -0.135 ± 0.059 | -0.0865 ± 0.012 | -0.208 ± 0.24 | -0.729 | 0.093 ± 0.0099 | 0.037 ± 0.045 | -0.117 ± 0.12 | 0.0075 ± 0.12 | 0.028 ± 0.011 | -0.249 ± 0.1 | -0.863 ± 0.015 | -0.168 ± 0.2 | -0.0675 ± 0.037 | -0.282 ± 0.23
2 | BT:sIL-17F | -0.039 ± 0.11 | -0.02 ± 0.025 | -0.064 ± 0.088 | -0.179 ± 0.075 | 0.0655 ± 0.084 | 0.008 ± 0.0014 | -0.0175 ± 0.069 | -0.123 ± 0.064 | -0.054 ± 0.1 | -0.619 | 0.0475 ± 0.13 | -0.037 ± 0.051 | -0.105 ± 0.032 | -0.0555 ± 0.04 | -0.03 ± 0.021 | -0.0755 ± 0.1 | -0.816 ± 0.025 | -0.0405 ± 0.13 | -0.0495 ± 0.094 | -0.0615 ± 0.14
3 | BT:sTNF-alpha | -0.067 ± 0.072 | -0.137 ± 0.11 | -0.0565 ± 0.023 | -0.0905 ± 0.1 | 0.114 ± 0.04 | 0.0475 ± 0.018 | 0.048 ± 0.24 | -0.017 ± 0.085 | -0.007 ± 0.031 | -0.762 | 0.102 ± 0.067 | 0.0055 ± 0.084 | 0.084 ± 0.069 | -0.016 ± 0.085 | -0.003 ± 0.0028 | -0.036 ± 0.095 | -0.698 ± 0.042 | -0.033 ± 0.038 | -0.0095 ± 0.12 | 0.001 ± 0.13
4 | LPS:CCL2/MCP-1 | -0.0335 ± 0.074 | -0.03 ± 0.055 | -0.0295 ± 0.1 | -0.0565 ± 0.064 | -0.016 | -0.0075 ± 0.005 | -0.0105 ± 0.019 | -0.0035 ± 0.00071 | -0.0135 ± 0.015 | 0.01 | -0.013 ± 0.0057 | -0.01 ± 0.0071 | -0.004 ± 0.013 | -0.016 ± 0.0014 | 0.0055 ± 0.0078 | -0.013 ± 0.024 | -0.0285 ± 0.019 | -0.0095 ± 0.0035 | -0.001 ± 0.031 | 0.0105 ± 0.0092
5 | LPS:CD40 | -0.033 ± 0.018 | -0.0475 ± 0.011 | -0.009 ± 0.028 | -0.0155 ± 0.03 | 0.002 ± 0.062 | -0.012 ± 0.018 | 0.0205 ± 0.028 | -0.0225 ± 0.015 | -0.0585 ± 0.037 | -0.095 | -0.0185 ± 0.066 | 0.0215 ± 0.054 | 0.129 ± 0.061 | 0.0065 ± 0.0021 | -0.019 ± 0.02 | -0.0095 ± 0.025 | -0.1475 ± 0.00071 | 0.024 ± 0.025 | 0.0265 ± 0.088 | -0.117 ± 0.093
6 | LPS:CD62E/E-Selectin | -0.01 ± 0.024 | -0.0185 ± 0.0021 | 0.005 ± 0.0014 | 0.005 ± 0.025 | -0.0005 ± 0.015 | -0.004 ± 0.011 | 0.0465 ± 0.012 | -0.064 ± 0.04 | -0.0475 ± 0.0021 | -0.038 | 0.001 ± 0.0057 | 0.012 ± 0.027 | 0.0375 ± 0.0078 | 0.0035 ± 0.022 | -0.0105 ± 0.018 | -0.0095 ± 0.012 | -0.0155 ± 0.0035 | -0.0015 ± 0.0092 | -0.012 ± 0.0028 | 0.0025 ± 0.013
7 | LPS:CD69 | -0.0175 ± 0.015 | -0.035 ± 0.033 | -0.0385 ± 0.044 | -0.0175 ± 0.0092 | -0.026 ± 0.075 | 0.001 ± 0.051 | 0.0815 ± 0.029 | -0.0215 ± 0.073 | -0.039 ± 0.045 | -0.111 | -0.026 ± 0.048 | -0.0665 ± 0.088 | -0.055 | 0 ± 0.013 | -0.008 ± 0.0071 | 0.0085 ± 0.011 | -0.052 ± 0.023 | -0.0165 ± 0.012 | -0.045 ± 0.0085 | -0.142 ± 0.031
